Experimental data reported in ChEMBL document CHEMBL1121983, “Conformational requirements for norepinephrine uptake inhibition by phenethylamines in brain synaptosomes. Effects of alpha-alkyl substitution” (J Med Chem, 1982).

Species on record: Rattus norvegicus
Assay: Inhibition of [3H]norepinephrine uptake was determined in rat brain synaptosomal preparation
Type: functional
For N[C@H]1CCc2ccccc2C1 (racemic), the IC50 was 0.85 µM. With N[C@H]1C=Cc2ccccc2C1 (racemic) the IC50 was 0.65 µM. In the case of CC[C@H](N)Cc1ccccc1 (racemic), the IC50 is reported as 6.5 µM. Work on CC(N)Cc1ccccc1 (racemic) yielded an IC50 of 0.49 µM.
